What was measured:
[1] = tested on: primary human cell culture platforms; assay: BioMAP Diversity Plus profiling; type: cell-based; settings: profiles overlaid
AhR [2] = target: T1, AhR (Homo sapiens, UniProt P35869); assay: CYP1A1-bla LS-180 AhR agonist assay; type: cell-based; settings: CYP1A1-bla LS-180 cells, ~20 hrs
T1 construct: LS-180 cells stably transfected with a CYP1A1 promoter-linked beta-lactamase gene reporter construct; endogenous in cells; host or cells: CYP1A1-bla LS-180 cells
T1 sequence (P35869 11-848): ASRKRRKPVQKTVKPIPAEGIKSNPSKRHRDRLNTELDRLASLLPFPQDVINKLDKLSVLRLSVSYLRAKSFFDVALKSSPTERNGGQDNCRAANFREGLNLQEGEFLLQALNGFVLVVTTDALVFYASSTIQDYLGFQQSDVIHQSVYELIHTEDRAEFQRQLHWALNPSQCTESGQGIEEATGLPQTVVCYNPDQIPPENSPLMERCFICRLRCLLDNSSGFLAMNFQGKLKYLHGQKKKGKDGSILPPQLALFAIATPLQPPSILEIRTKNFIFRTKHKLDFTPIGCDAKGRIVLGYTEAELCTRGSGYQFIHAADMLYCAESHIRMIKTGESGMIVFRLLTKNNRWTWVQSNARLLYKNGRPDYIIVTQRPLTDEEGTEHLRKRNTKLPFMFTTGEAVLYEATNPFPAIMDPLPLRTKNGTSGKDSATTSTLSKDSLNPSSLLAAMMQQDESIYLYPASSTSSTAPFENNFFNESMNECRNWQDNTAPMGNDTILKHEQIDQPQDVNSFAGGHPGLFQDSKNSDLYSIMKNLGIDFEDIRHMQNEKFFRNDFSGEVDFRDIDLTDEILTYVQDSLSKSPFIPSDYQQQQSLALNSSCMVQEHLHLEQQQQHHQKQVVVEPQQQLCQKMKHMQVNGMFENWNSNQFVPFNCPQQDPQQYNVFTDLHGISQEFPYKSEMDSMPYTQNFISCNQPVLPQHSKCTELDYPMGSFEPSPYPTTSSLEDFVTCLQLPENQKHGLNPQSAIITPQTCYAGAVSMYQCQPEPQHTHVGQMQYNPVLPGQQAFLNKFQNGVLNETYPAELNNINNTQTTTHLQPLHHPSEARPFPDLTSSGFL
Procedure: LS-180 cells stably transfected with a CYP1A1 promoter-linked beta-lactamase gene reporter construct (termed CYP1A1-bla LS-180 cells) were used to characterize the ability of compounds to activate AhR. In brief, AhR activity was measured using the LiveBLAzer assay kit which utilizes a beta lactamase (bla) reporter gene downstream of CYP1A1 promoter, which metabolizes its substrate to give a fluorescent readout. For the agonist assay, CYP1A1-bla LS-180 cells were treated with increasing concentrations of compound over a 100,000-fold concentration range.
CYP1A1-bla LS-180 cells in exponential growth phase were washed twice with DPBS then seeded into 96-well microplates (50,000 cells/well) and allowed to adhere. […] The LiveBLAzer FRET B/G β-lactamase substrate was added in the final hour of incubation and resulting blue/green fluorescence was measured using a 96-well microplate reader.
AhR activity was measured as a function of beta-lactamase expression using a fluorescence resonance energy transfer-based readout. TCDD and FICZ were used as controls to validate the system.

AhR [3] = target: T1, AhR; settings: value reported by Invitrogen; cited from earlier work
[4] = oxygen radical absorbance capacity (ORAC) test; type: biochemical; settings: Trolox Equivalent Values
CB2 = target: T2, CB2 (Homo sapiens, UniProt P34972); assay: fluorescence-based agonist assay using genetically modified yeast; type: cell-based; settings: read-out: CB2 pEC50 (converted)
T2 construct: expressed in transfected cells

IL-17A = assay: CD4+ T cell IL17 assay; type: cell-based, human
Procedure: Therefore, compounds are evaluated for their ability to reduce IL-17 production from CD4+ T cells stimulated under Th17-skewing conditions. Cryopreserved human CD4^+ T cells (AllCells, LLC, Alameda, CA and Stemcell Technologies, Inc. Vancouver, Canada) were differentiated to the Th17 subtype by culturing for 5 days in CD3-coated tissue culture plates (2 μg/mL) in Iscove's modified Dulbecco's medium (IMDM) containing 10% HI-FBS, 55 μM 2-mercaptoethanol and soluble anti-CD28 (3 μg/mL) in the presence of a Th17 skewing cocktail, [IL-1β (10 ng/mL), IL-6 (30 ng/mL), TGFβ (0.5 ng/mL), IL-21 (10 ng/mL), IL-23 (10 ng/mL), anti-IFNγ (10 μg/mL) and anti-IL-4 (10 μg/mL)] in the presence or absence of serially diluted compounds. Secretion of IL-17 from polarized CD4+ T-cells was measured in the culture media using an MSD (Meso Scale Discovery) detection system following 5 day exposure toTh17 polarization reagents with and without compounds.

Nrf2 = assay: luciferase-based reporter assay for NQO1 gene expression; type: cell-based

T2 sequence (P34972 whole entry, species assumed): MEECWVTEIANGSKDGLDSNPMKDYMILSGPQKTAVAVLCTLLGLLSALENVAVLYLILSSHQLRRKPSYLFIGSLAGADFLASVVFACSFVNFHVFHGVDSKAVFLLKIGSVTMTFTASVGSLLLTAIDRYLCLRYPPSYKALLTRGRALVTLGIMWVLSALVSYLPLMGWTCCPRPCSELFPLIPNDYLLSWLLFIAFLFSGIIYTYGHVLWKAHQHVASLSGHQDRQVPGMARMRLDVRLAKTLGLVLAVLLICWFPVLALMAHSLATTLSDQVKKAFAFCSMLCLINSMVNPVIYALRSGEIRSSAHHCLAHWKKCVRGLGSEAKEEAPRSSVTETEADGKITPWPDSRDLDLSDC

Row | Compound | sIL-17 in BioMAP [1] | pEC50 (AhR [2]) | pEC50 reported by Invitrogen (AhR [3]) | Hydroxyl-radical [4] [TEV] | Peroxyl radical-hydro [4] [TEV] | Peroxyl radical-lipo [4] [TEV] | Peroxynitrite [4] [TEV] | Singlet oxygen [4] [TEV] | Superoxide anion [4] [TEV] | Total ORAC value [4] [TEV] | EC50 (CB2) [nM] | IC50 (IL-17A; T-cell, MSD-based readout of secreted IL-17A from Th17-polarized primary human CD4+ peripheral blood T cells, read-out: IL-17A pIC50 (converted)) [nM] | IL-17A production (IL-17A; Th17-skewing conditions, applied throughout culture) | Nrf2 pEC50 (Nrf2)
1 | 6-formylindolo(3,2-b)carbazole [FICZ, reference compound] | not seen | 6.82 |  |  |  |  |  |  |  |  |  |  |  | 
2 | Clc1cc2c(cc1Cl)Oc1cc(Cl)c(Cl)cc1O2 [TCDD] |  | 10.34 | 9.70 |  |  |  |  |  |  |  |  |  |  | 
3 | CC(C)c1c(O)cc(/C=C/c2ccccc2)cc1O [tapinarof] | not seen |  |  | 1067 | 4663 | 2164 | 140 | 3581 | 11241 | 22855 | 158 | 3.16 | suppression of IL-17A | pEC50 = 7.6

— patent publication US20220017468A1, “ISOQUINOLINE COMPOUNDS AND THEIR USE IN TREATING AhR IMBALANCE” (Dermavant Sciences GmbH, priority 2020, published 2022)
